Reference: PMC6128713 (Saudi Pharmaceutical Journal : SPJ, 2018)
“And” between values parts separate entries of the source, which are not always exact repeats. Equal entries are not always repeated. Where two headings read alike, the source gives them in different places.

What was measured:
[1] = test system: glutamate-induced 45Ca2+ uptake into synaptosomes of rat brain cortex; experiment: Effect on glutamate-induced 45Ca2+ uptake into synaptosomes of rat brain cortex; assay type: biochemical, Wistar rats; conditions: for Percentage 45Ca2+ of Control (Control – 100%): 200 μM glutamate, 5 min, 37 °C; for overall inhibiting activity on calcium ion uptake, in words: whole concentration range 0.01–100 μM
[2] = assay type: physicochemical

## COc1ccc2c(c1)c1c(n2CCc2n[nH]c(=S)n2C)CCN(C)C1 [III, 5-[2-(8-Methoxy-2-methyl-1,2,3,4-tetrahydropyrido[4,3-b]indol-5-yl)ethyl]-4-methyl-2,4-dihydro[1,2,4]triazole-3-thione]
[1]; compound 0.01 μM
  Percentage 45Ca2+ of Control (Control – 100%): 86.7 ± 4.0%
[1]; compound 0.1 μM
  Percentage 45Ca2+ of Control (Control – 100%): 57.5 ± 8.3%
[1]; compound 0.5 μM
  Percentage 45Ca2+ of Control (Control – 100%): 83.0 ± 7.9%
[1]; compound 1 μM
  Percentage 45Ca2+ of Control (Control – 100%): 83.4 ± 12.7%
[1]; compound 5 μM
  Percentage 45Ca2+ of Control (Control – 100%): 86.6 ± 4.5%
[1]; compound 10 μM
  Percentage 45Ca2+ of Control (Control – 100%): 85.8 ± 15.2%
[1]; compound 50 μM
  Percentage 45Ca2+ of Control (Control – 100%): 93.1 ± 12.8%
[1]; compound 100 μM
  Percentage 45Ca2+ of Control (Control – 100%): 96.1 ± 13.2%
[1]; concentration of 0.1 μM
  maximal effect on calcium ion uptake (inhibiting ability): 42.5%
[1]; concentration of 1 μM
  inhibition of glutamate-induced calcium ion uptake: ~17%
[1]
  overall inhibiting activity on calcium ion uptake, in words: highest inhibiting activity within a wide concentration range (0.01–10 μM)
[2]; 1-octanol, 293.15 K
  mole fraction solubility (x): 0.71 x · 10^4
[2]; 1-octanol, 293.15–313.15 K
  A, parameter of the correlation equation lnx=A-B/T: 7.10 ± 0.15
  B, parameter of the correlation equation lnx=A-B/T: 4876 ± 47
[2]; 1-octanol, 298.15 K
  mole fraction solubility (x): 0.93 x · 10^4
  ΔGsol0, standard molar dissolution Gibbs energy: 5.5 kcal/mol
  ΔHsol0, standard molar dissolution enthalpy: 9.68 kcal/mol
  ΔSsol0, standard molar dissolution entropy: 58.7 J/mol⋅K
[2]; 1-octanol, 303.15 K
  mole fraction solubility (x): 1.22 x · 10^4
[2]; 1-octanol, 308.15 K
  mole fraction solubility (x): 1.61 x · 10^4
[2]; 1-octanol, 313.15 K
  mole fraction solubility (x): 2.05 x · 10^4
[2]; Buffer pH 7.4, 293.15 K
  mole fraction solubility (x): 5.57 x · 10^6
[2]; Buffer pH 7.4, 293.15–313.15 K
  A, parameter of the correlation equation lnx=A-B/T: −2.82 ± 0.09
  B, parameter of the correlation equation lnx=A-B/T: 2719 ± 29
[2]; Buffer pH 7.4, 298.15 K
  mole fraction solubility (x): 6.55 x · 10^6
  ΔGsol0, standard molar dissolution Gibbs energy: 7.07 kcal/mol
  ΔHsol0, standard molar dissolution enthalpy: 5.4 kcal/mol
  ΔSsol0, standard molar dissolution entropy: –23.4 J/mol⋅K
[2]; Buffer pH 7.4, 303.15 K
  mole fraction solubility (x): 7.53 x · 10^6
[2]; Buffer pH 7.4, 308.15 K
  mole fraction solubility (x): 8.77 x · 10^6
[2]; Buffer pH 7.4, 313.15 K
  mole fraction solubility (x): 10.09 x · 10^6
[2]; Hexane, 293.15 K
  mole fraction solubility (x): 3.30 x · 10^5
[2]; Hexane, 293.15–313.15 K
  A, parameter of the correlation equation lnx=A-B/T: −2.93 ± 0.14
  B, parameter of the correlation equation lnx=A-B/T: 2165 ± 43
[2]; Hexane, 298.15 K
  mole fraction solubility (x): 3.71 x · 10^5
  ΔGsol0, standard molar dissolution Gibbs energy: 6.05 kcal/mol
  ΔHsol0, standard molar dissolution enthalpy: 4.3 kcal/mol
  ΔSsol0, standard molar dissolution entropy: -24.5 J/mol⋅K
[2]; Hexane, 303.15 K
  mole fraction solubility (x): 4.18 x · 10^5
[2]; Hexane, 308.15 K
  mole fraction solubility (x): 4.68 x · 10^5
[2]; Hexane, 313.15 K
  mole fraction solubility (x): 5.31 x · 10^5

## CN1CCc2c(c3ccccc3n2CCc2n[nH]c(=S)n2C)C1 [Compound I, 4-Methyl-5-[2-(2-methyl-1,2,3,4-tetrahydropyrido[4,3-b]indol-5-yl)ethyl]-2,4-dihydro[1,2,4]triazole-3-thione]
[1]; compound 0.1 μM
  Percentage 45Ca2+ of Control (Control – 100%): 90.5 ± 5.1%
[1]; compound 0.5 μM
  Percentage 45Ca2+ of Control (Control – 100%): 94.8 ± 3.0%
[1]; compound 1 μM
  Percentage 45Ca2+ of Control (Control – 100%): 94.5 ± 11.8%
[1]; compound 5 μM
  Percentage 45Ca2+ of Control (Control – 100%): 80.0 ± 3.0%
[1]; compound 10 μM
  Percentage 45Ca2+ of Control (Control – 100%): 69.9 ± 4.4%
[1]; compound 50 μM
  Percentage 45Ca2+ of Control (Control – 100%): 90.0 ± 6.1%
[1]; compound 100 μM
  Percentage 45Ca2+ of Control (Control – 100%): 104.2 ± 12.8%
[1]; concentration of 0.1–1 μM
  effect on glutamate-induced calcium ion uptake, in words: did not affect
[1]; concentrations of 5–50 μM
  effect on glutamate-induced calcium ion uptake, in words: inhibited calcium ion uptake
[2]; 1-octanol, 293.15 K
  mole fraction solubility (x): 2.16 x · 10^4
[2]; 1-octanol, 293.15–313.15 K
  A, parameter of the correlation equation lnx=A-B/T: 5.83 ± 0.11
  B, parameter of the correlation equation lnx=A-B/T: 4179 ± 45
[2]; 1-octanol, 298.15 K
  mole fraction solubility (x): 2.74 x · 10^4
  ΔGsol0, standard molar dissolution Gibbs energy: 4.85 kcal/mol
  ΔHsol0, standard molar dissolution enthalpy: 8.29 kcal/mol
  ΔSsol0, standard molar dissolution entropy: 69.9 J/mol⋅K
[2]; 1-octanol, 303.15 K
  mole fraction solubility (x): 3.48 x · 10^4
[2]; 1-octanol, 308.15 K
  mole fraction solubility (x): 4.28 x · 10^4
[2]; 1-octanol, 313.15 K
  mole fraction solubility (x): 5.40 x · 10^4
[2]; Buffer pH 7.4, 293.15 K
  mole fraction solubility (x): 1.69 x · 10^6
[2]; Buffer pH 7.4, 293.15–313.15 K
  A, parameter of the correlation equation lnx=A-B/T: −7.76 ± 0.04
  B, parameter of the correlation equation lnx=A-B/T: 1649 ± 12
[2]; Buffer pH 7.4, 298.15 K
  mole fraction solubility (x): 1.86 x · 10^6
  ΔGsol0, standard molar dissolution Gibbs energy: 7.82 kcal/mol
  ΔHsol0, standard molar dissolution enthalpy: 3.27 kcal/mol
  ΔSsol0, standard molar dissolution entropy: -63.73 J/mol⋅K
[2]; Buffer pH 7.4, 303.15 K
  mole fraction solubility (x): 2.04 x · 10^6
[2]; Buffer pH 7.4, 308.15 K
  mole fraction solubility (x): 2.23 x · 10^6
[2]; Buffer pH 7.4, 313.15 K
  mole fraction solubility (x): 2.42 x · 10^6
[2]; Hexane, 293.15 K
  mole fraction solubility (x): 7.96 x · 10^6
[2]; Hexane, 293.15–313.15 K
  A, parameter of the correlation equation lnx=A-B/T: −1.25 ± 0.18
  B, parameter of the correlation equation lnx=A-B/T: 3073 ± 39
[2]; Hexane, 298.15 K
  mole fraction solubility (x): 9.41 x · 10^6
  ΔGsol0, standard molar dissolution Gibbs energy: 6.84 kcal/mol
  ΔHsol0, standard molar dissolution enthalpy: 6.12 kcal/mol
  ΔSsol0, standard molar dissolution entropy: -6.7 J/mol⋅K
[2]; Hexane, 303.15 K
  mole fraction solubility (x): 11.41 x · 10^6
[2]; Hexane, 308.15 K
  mole fraction solubility (x): 13.26 x · 10^6
[2]; Hexane, 313.15 K
  mole fraction solubility (x): 15.50 x · 10^6
[2]; standard temperature
  increase of solubility in hexane over buffer solution: 5 times

## CN1CCc2c(c3cc(Cl)ccc3n2CCc2n[nH]c(=S)n2C)C1 [V, 5-[2-(8-Chloro-2-methyl-1,2,3,4-tetrahydropyrido[4,3-b]indol-5-yl)ethyl]-4-methyl-2,4-dihydro[1,2,4]triazole-3-thione]
[1]; compound 0.01 μM
  Percentage 45Ca2+ of Control (Control – 100%): 103.5 ± 7.7%
[1]; compound 0.1 μM
  Percentage 45Ca2+ of Control (Control – 100%): 95.3 ± 1.0%
[1]; compound 0.5 μM
  Percentage 45Ca2+ of Control (Control – 100%): 102.2 ± 6.3%
[1]; compound 1 μM
  Percentage 45Ca2+ of Control (Control – 100%): 94.5 ± 4.7%
[1]; compound 5 μM
  Percentage 45Ca2+ of Control (Control – 100%): 80.7 ± 10.5%
[1]; compound 10 μM
  Percentage 45Ca2+ of Control (Control – 100%): 75.6 ± 10.0%
[1]; compound 50 μM
  Percentage 45Ca2+ of Control (Control – 100%): 93.3 ± 11.0%
[1]; compound 100 μM
  Percentage 45Ca2+ of Control (Control – 100%): 135.5% and 135.5 ± 9.4%
[1]; concentration of 5–10 μM
  inhibition of glutamate-induced calcium ion uptake, most efficient: ~20%
[1]
  overall inhibiting activity on calcium ion uptake, in words: weak inhibitors of calcium ion uptake
[2]; 1-octanol, 293.15 K
  mole fraction solubility (x): 1.15 x · 10^4
[2]; 1-octanol, 293.15–313.15 K
  A, parameter of the correlation equation lnx=A-B/T: 6.03 ± 0.15
  B, parameter of the correlation equation lnx=A-B/T: 4423 ± 47
[2]; 1-octanol, 298.15 K
  mole fraction solubility (x): 1.47 x · 10^4
  ΔGsol0, standard molar dissolution Gibbs energy: 5.23 kcal/mol
  ΔHsol0, standard molar dissolution enthalpy: 8.8 kcal/mol
  ΔSsol0, standard molar dissolution entropy: 50.0 J/mol⋅K
[2]; 1-octanol, 303.15 K
  mole fraction solubility (x): 1.91 x · 10^4
[2]; 1-octanol, 308.15 K
  mole fraction solubility (x): 2.42 x · 10^4
[2]; 1-octanol, 313.15 K
  mole fraction solubility (x): 3.01 x · 10^4
[2]; Buffer pH 7.4, 293.15 K
  mole fraction solubility (x): 2.66 x · 10^6
[2]; Buffer pH 7.4, 293.15–313.15 K
  A, parameter of the correlation equation lnx=A-B/T: 0.12 ± 0.16
  B, parameter of the correlation equation lnx=A-B/T: 3799 ± 50
[2]; Buffer pH 7.4, 298.15 K
  mole fraction solubility (x): 3.25 x · 10^6
  ΔGsol0, standard molar dissolution Gibbs energy: 7.34 kcal/mol
  ΔHsol0, standard molar dissolution enthalpy: 7.55 kcal/mol
  ΔSsol0, standard molar dissolution entropy: 2.9 J/mol⋅K
[2]; Buffer pH 7.4, 303.15 K
  mole fraction solubility (x): 4.01 x · 10^6
[2]; Buffer pH 7.4, 308.15 K
  mole fraction solubility (x): 4.95 x · 10^6
[2]; Buffer pH 7.4, 313.15 K
  mole fraction solubility (x): 6.07 x · 10^6
[2]; Hexane, 293.15 K
  mole fraction solubility (x): 5.42 x · 10^4
[2]; Hexane, 293.15–313.15 K
  A, parameter of the correlation equation lnx=A-B/T: 2.45 ± 0.12
  B, parameter of the correlation equation lnx=A-B/T: 2922 ± 38
[2]; Hexane, 298.15 K
  mole fraction solubility (x): 6.39 x · 10^4
  ΔGsol0, standard molar dissolution Gibbs energy: 4.35 kcal/mol
  ΔHsol0, standard molar dissolution enthalpy: 5.81 kcal/mol
  ΔSsol0, standard molar dissolution entropy: 13.1 J/mol⋅K
[2]; Hexane, 303.15 K
  mole fraction solubility (x): 7.47 x · 10^4
[2]; Hexane, 308.15 K
  mole fraction solubility (x): 8.87 x · 10^4
[2]; Hexane, 313.15 K
  mole fraction solubility (x): 10.22 x · 10^4

## Cc1ccc2c(c1)c1c(n2CCc2ccc(C)nc2)CCN(C)C1 [Dimebon, reference compound]
[1]; compound 0.1 μM
  Percentage 45Ca2+ of Control (Control – 100%): 120.5 ± 3.3%
[1]; compound 0.5 μM
  Percentage 45Ca2+ of Control (Control – 100%): 64.4 ± 12.4%
[1]; compound 1 μM
  Percentage 45Ca2+ of Control (Control – 100%): 61.3 ± 8.1%
[1]; compound 5 μM
  Percentage 45Ca2+ of Control (Control – 100%): 83.2 ± 4.1%
[1]; compound 10 μM
  Percentage 45Ca2+ of Control (Control – 100%): 89.3 ± 1.2%
[1]; compound 50 μM
  Percentage 45Ca2+ of Control (Control – 100%): 98.7 ± 8.8%
[1]; compound 100 μM
  Percentage 45Ca2+ of Control (Control – 100%): 132.0 ± 2.9%
